# In PubChem BioAssay (NCI):
#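 Tested at 5 concentrations; 48 h exposure; 96-well plates; endpoints linearly interpolated, else capped at highest concentration. GI50: concentration for 50% inhibition of growth. Definition used: TGI = concentration required for complete inhibition of growth.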
# Columns and labels:
# Assay in all cases: inhibition of tumour cell growth, NCI panel, 48 h
# BT-549 breast = tested on: BT-549 breast
# SR leukemia = tested on: SR leukemia
# SK-MEL-2 melanoma = tested on: SK-MEL-2 melanoma
# UACC-62 melanoma = tested on: UACC-62 melanoma
# HT29 colon = tested on: HT29 colon
# NCI/ADR-RES ovarian = tested on: NCI/ADR-RES ovarian
# SF-295 CNS = tested on: SF-295 CNS
# K-562 leukemia = tested on: K-562 leukemia
# IGROV1 ovarian = tested on: IGROV1 ovarian
# MOLT-4 leukemia = tested on: MOLT-4 leukemia
# A549 NSCLC = tested on: A549 NSCLC
# SNB-19 CNS = tested on: SNB-19 CNS
# ACHN renal = tested on: ACHN renal
# RPMI-8226 leukemia = tested on: RPMI-8226 leukemia
# DU-145 prostate = tested on: DU-145 prostate
# SK-MEL-5 melanoma = tested on: SK-MEL-5 melanoma
# KM12 colon = tested on: KM12 colon
# HOP-62 NSCLC = tested on: HOP-62 NSCLC
# SF-268 CNS = tested on: SF-268 CNS
# MALME-3M melanoma = tested on: MALME-3M melanoma
# UACC-257 melanoma = tested on: UACC-257 melanoma
# HS 578T breast = tested on: HS 578T breast
# HCC-2998 colon = tested on: HCC-2998 colon
# HCT-15 colon = tested on: HCT-15 colon
# SNB-75 CNS = tested on: SNB-75 CNS
# SK-MEL-28 melanoma = tested on: SK-MEL-28 melanoma
# UO-31 renal = tested on: UO-31 renal
# MDA-MB-231 breast = tested on: MDA-MB-231 breast
# OVCAR-5 ovarian = tested on: OVCAR-5 ovarian
smiles,measurement,setting,value
CN1CCN(Cc2ccc(NC(=O)c3cncc(C#Cc4cnc5ccc(OCCCS(C)(=O)=O)nn45)c3)cc2C(F)(F)F)CC1,GI50,BT-549 breast,469 nM
same,TGI,BT-549 breast,1390 nM
same,GI50,SR leukemia,207 nM
same,TGI,SR leukemia,1470 nM
same,GI50,SK-MEL-2 melanoma,216 nM
same,TGI,SK-MEL-2 melanoma,783 nM
same,GI50,UACC-62 melanoma,571 nM
same,TGI,UACC-62 melanoma,1520 nM
same,GI50,HT29 colon,475 nM
same,TGI,HT29 colon,1890 nM
same,GI50,NCI/ADR-RES ovarian,8490 nM
same,TGI,NCI/ADR-RES ovarian,34100 nM
same,GI50,SF-295 CNS,1090 nM
same,TGI,SF-295 CNS,4770 nM
same,GI50,K-562 leukemia,12.3 nM
same,TGI,K-562 leukemia,2170 nM
same,GI50,IGROV1 ovarian,258 nM
same,TGI,IGROV1 ovarian,2450 nM
same,GI50,MOLT-4 leukemia,272 nM
same,TGI,MOLT-4 leukemia,3710 nM
same,GI50,A549 NSCLC,1090 nM
same,TGI,A549 NSCLC,5930 nM
same,GI50,SNB-19 CNS,1290 nM
same,TGI,SNB-19 CNS,4460 nM
same,GI50,ACHN renal,1390 nM
same,TGI,ACHN renal,4460 nM
same,GI50,RPMI-8226 leukemia,1190 nM
same,TGI,RPMI-8226 leukemia,3410 nM
same,GI50,DU-145 prostate,691 nM
same,TGI,DU-145 prostate,3790 nM
same,GI50,SK-MEL-5 melanoma,775 nM
same,TGI,SK-MEL-5 melanoma,1740 nM
same,GI50,KM12 colon,5 nM
same,TGI,KM12 colon,1400 nM
same,GI50,HOP-62 NSCLC,833 nM
same,TGI,HOP-62 NSCLC,2760 nM
same,GI50,SF-268 CNS,690 nM
same,TGI,SF-268 CNS,1720 nM
same,GI50,MALME-3M melanoma,128 nM
same,TGI,MALME-3M melanoma,576 nM
same,GI50,UACC-257 melanoma,1030 nM
same,TGI,UACC-257 melanoma,3470 nM
same,GI50,HS 578T breast,318 nM
same,TGI,HS 578T breast,1660 nM
same,GI50,HCC-2998 colon,687 nM
same,TGI,HCC-2998 colon,2750 nM
same,GI50,HCT-15 colon,1340 nM
same,TGI,HCT-15 colon,4260 nM
same,GI50,SNB-75 CNS,338 nM
same,TGI,SNB-75 CNS,1130 nM
same,GI50,SK-MEL-28 melanoma,796 nM
same,TGI,SK-MEL-28 melanoma,2550 nM
same,GI50,UO-31 renal,1330 nM
same,TGI,UO-31 renal,3770 nM
same,GI50,MDA-MB-231 breast,166 nM
same,TGI,MDA-MB-231 breast,1050 nM
same,GI50,OVCAR-5 ovarian,892 nM
same,TGI,OVCAR-5 ovarian,4570 nM
